Data taken from US10328053B2 (Gilead Sciences, Inc., priority 2016, dated 2019).

Test system: HBV AD38 viral particles in HepG2 cell line overexpressing NTCP
Assay: HBV DNA Quantification Assay
Format: cell-based
Details: Hepatitis B virus, HepG2, 120 h, HBV-infected HepG2-NTCP cells, 5 days incubation, HBV DNA in culture supernatant (QuantiGene 2.0); geometric mean of a minimum of four determinations
Protocol: HBV DNA Quantification Assay
A HepG2 cell line overexpressing the HBV virus attachment receptor sodium-taurocholate cotransporting polypeptide (NTCP) was grown to confluency in DMEM growth medium, Dulbecco's Modified Eagle Medium without sodium pyruvate (Life Technologies, Rockville, Md.) supplemented with 10% FBS (Thermo Scientific, Waltham, Md.), 1% penicillin/streptomycin (Life Technologies, Rockville, Md.) and 2 mM L-glutamine (Life Technologies, Rockville, Md.) in T175 flasks. Cells were infected with HBV AD38 viral particles (Texcell, Frederick, USA) at 4000 genome equivalents per cell. After allowing viral infection to take place for 4 days, the infected cells were harvested from the flasks by trypsinization, washed twice with OptiMEM (Life Technologies, Rockville, Md.) and re-suspended in DMEM containing 2% FBS and 1% DMSO at a density of 0.25E6 cells/ml. Infected cells were seeded on 384 well collagen coated plates (Greiner, Austria) at a density of 20,000 cells/well containing serially diluted compounds of the present disclosure or DMSO (0.5%) in a final volume of 80 μl. The assay plates were incubated for a period of 5 days and the antiviral activity of the test compounds were assayed by detecting the presence of HBV DNA in the culture supernatant using the QuantiGene™ 2.0 nucleic acid quantification kit (Affymetrix, Santa Clara, Calif.).
The culture supernatant was harvested and treated with lysis buffer containing Proteinase K (Affymetrix, Santa Clara, Calif.). The supernatant was incubated with HBV viral DNA specific probes (Affymetrix, Santa Clara, Calif.) for 30 minutes at 55° C. This was followed by addition of 0.2M NaOH for 30 minutes at room temperature to denature the DNA, followed by addition of Neutralization buffer (Affymetrix, Santa Clara, Calif.). The resulting lysed and neutralized supernatant was then added to QuantiGene™ 2.0 384 well plates coated with capture oligonucleotides and incubated overnight at 55° C. The HBV specific probe set consists of Capture Extender oligonucleotides (CE's) and blocking probes. Following the overnight incubation, the wells were incubated for one hour sequentially with a Pre-Amplifier, Amplifier and Labeled probes conjugated to alkaline phosphatase with a wash step between incubations. After the final wash step, the alkaline phosphatase substrate (Luminol APS5) was added and the resulting luminescence signal was read in an EnVision Multilabel Plate Reader (PerkinElmer, Santa Clara, Calif.). The EC50 values were calculated from the fit of the dose—response curves to a four-parameter equation. All EC50 values represent geometric mean values of a minimum of four determinations.

Row | Structure (SMILES) | EC50
1 | Cc1c(C(=O)C(=O)NC2(C(=O)N3CC4(C3)CN(S(C)(=O)=O)C4)CC(F)(F)C2)c2n(c1C(=O)Nc1ccc(F)c(Cl)c1)CCC2 [Example 28, N-(3-chloro-4-fluorophenyl)-7-(2-((3,3-difluoro-1-(6-(methylsulfonyl)-2,6-diazaspiro[3.3]heptane-2-carbonyl)cyclobutyl)amino)-2-oxoacetyl)-6-methyl-2,3-dihydro-1H-pyrrolizine-5-carboxamide] | 112 nM
2 | Cc1c(C(=O)C(=O)NC23CC(C(N)=O)(C2)C3)c2n(c1C(=O)Nc1ccc(F)c(Cl)c1)CCC2 [Example 106, 7-(2-((3-carbamoylbicyclo[1.1.1]pentan-1-yl)amino)-2-oxoacetyl)-N-(3-chloro-4-fluorophenyl)-6-methyl-2,3-dihydro-1H-pyrrolizine-5-carboxamide] | 124 nM
3 | CNC(=O)C(C)(C)NC(=O)C(=O)c1c(C)c(C(=O)Nc2ccc(F)c(Cl)c2)n2c1CCC2 [Example 82, N-(3-chloro-4-fluorophenyl)-6-methyl-7-(2-((2-methyl-1-(methylamino)-1-oxopropan-2-yl)amino)-2-oxoacetyl)-2,3-dihydro-1H-pyrrolizine-5-carboxamide] | 133 nM
4 | Cc1c(C(=O)C(=O)NC2(c3cnn[nH]3)CC2)c2n(c1C(=O)Nc1cccc(OC(F)(F)F)c1)CCC2 [Example 85, 7-(2-((1-(1H-1,2,3-triazol-5-yl)cyclopropyl)amino)-2-oxoacetyl)-6-methyl-N-(3-(trifluoromethoxy)phenyl)-2,3-dihydro-1H-pyrrolizine-5-carboxamide] | 294 nM
5 | CNC(=O)C(C)(C)NC(=O)C(=O)c1c(C)c(C(=O)Nc2ccc(F)c(C(F)F)c2)n2c1CCC2 [Example 114, N-(3-(difluoromethyl)-4-fluorophenyl)-6-methyl-7-(2-((2-methyl-1-(methylamino)-1-oxopropan-2-yl)amino)-2-oxoacetyl)-2,3-dihydro-1H-pyrrolizine-5-carboxamide] | 156 nM
6 | CNC(=O)[C@@H](NC(=O)C(=O)c1c(C)c(C(=O)Nc2ccc(F)c(Cl)c2)n2c1CCC2)C(C)C [Example 128, (S)—N-(3-chloro-4-fluorophenyl)-6-methyl-7-(2-((3-methyl-1-(methylamino)-1-oxobutan-2-yl)amino)-2-oxoacetyl)-2,3-dihydro-1H-pyrrolizine-5-carboxamide] | 170 nM
7 | CC(C)(C)NC(=O)C(=O)c1c(Cl)c(C(=O)Nc2ccc(F)c(C#N)c2)n2c1CCC2 [Example 1, 7-(2-(tert-Butylamino)-2-oxoacetyl)-6-chloro-N-(3-cyano-4-fluorophenyl)-2,3-dihydro-1H-pyrrolizine-5-carboxamide] | 27.1 nM
8 | Cc1c(C(=O)C(=O)NC2(c3ccccc3)CC2)c2n(c1C(=O)Nc1cc(F)c(F)c(F)c1)CCC2 [Example 67, 6-methyl-7-(2-oxo-2-((1-phenylcyclopropyl)amino)acetyl)-N-(3,4,5-trifluorophenyl)-2,3-dihydro-1H-pyrrolizine-5-carboxamide] | 6.5 nM

Test system: not listed separately
Assay: Hepatic Stability Assay (in vitro half-life method)
Format: in vitro ADME
Set-up: dose or concentration left out as unconfirmed
Details: pooled cryopreserved hepatocytes, 37° C., 1×10^6 cells/mL, 0-6 hours, LC-MS/MS, 39.5 hours is the maximum detectable half life, read-out: t½ (converted)
Protocol: Hepatic Stability Assay The metabolic stability of certain compounds disclosed herein was assessed in vitro in pooled cryopreserved hepatocytes using the in vitro half-life method. Incubations were at 37° C. and final concentrations in the incubations were 1×10^6 cells/mL and […] test concentration of the compound. Aliquots were sequentially removed after 0, 1, 3 and 6 hours and analyzed by LC-MS/MS. In vitro half-life was determined by measuring the rate of disappearance of the compound and then scaled to predicted hepatic clearance using the well-stirred model. […] As such, compounds having a value of 39.5 may have a half live that exceeds 39.5 hours.

Row | Structure (SMILES) | half-life
9 | Cc1c(C(=O)C(=O)NC2(C(=O)N3CC4(C3)CN(S(C)(=O)=O)C4)CC(F)(F)C2)c2n(c1C(=O)Nc1ccc(F)c(Cl)c1)CCC2 [Example 28, N-(3-chloro-4-fluorophenyl)-7-(2-((3,3-difluoro-1-(6-(methylsulfonyl)-2,6-diazaspiro[3.3]heptane-2-carbonyl)cyclobutyl)amino)-2-oxoacetyl)-6-methyl-2,3-dihydro-1H-pyrrolizine-5-carboxamide] | 11.8 h
10 | Cc1c(C(=O)C(=O)NC2(c3c[nH]nn3)CC2)c2n(c1C(=O)Nc1ccnc(C(F)F)c1F)[C@@H]1C[C@@H]1C2 [Example 63, (1aR,6aR)-5-(2-((1-(1H-1,2,3-triazol-4-yl)cyclopropyl)amino)-2-oxoacetyl)-N-(2-(difluoromethyl)-3-fluoropyridin-4-yl)-4-methyl-1,1a,6,6a-tetrahydrocyclopropa[b]pyrrolizine-3-carboxamide] | 11.2 h
11 | Cc1c(C(=O)C(=O)N[C@H](C)C(F)(F)F)c2n(c1C(=O)Nc1ccc(F)c(Cl)c1)C(C)(C)CC2 [Example 17, (R)—N-(3-chloro-4-fluorophenyl)-3,3,6-trimethyl-7-(2-oxo-2-((1,1,1-trifluoropropan-2-yl)amino)acetyl)-2,3-dihydro-1H-pyrrolizine-5-carboxamide] | 0.6 h
12 | Cc1c(C(=O)C(=O)NC2(c3c[nH]nn3)CC(F)(F)C2)c2n(c1C(=O)Nc1ccnc(C(F)F)c1)CCC2 [Example 55, 7-(2-((3,3-difluoro-1-(1H-1,2,3-triazol-4-yl)cyclobutyl)amino)-2-oxoacetyl)-N-(2-(difluoromethyl)pyridin-4-yl)-6-methyl-2,3-dihydro-1H-pyrrolizine-5-carboxamide] | 15.5 h
13 | Cc1c(C(=O)C(=O)NC2(c3c[nH]nn3)CC2)c2n(c1C(=O)Nc1cccc(F)c1)CCC2 [Example 69, 7-(2-((1-(1H-1,2,3-triazol-4-yl)cyclopropyl)amino)-2-oxoacetyl)-N-(3-fluorophenyl)-6-methyl-2,3-dihydro-1H-pyrrolizine-5-carboxamide] | 17 h
14 | Cc1c(C(=O)C(=O)NC2(C#N)CC(F)(F)C2)c2n(c1C(=O)Nc1ccc(F)c(Cl)c1)CCC2 [Example 130, N-(3-chloro-4-fluorophenyl)-7-(2-((1-cyano-3,3-difluorocyclobutyl)amino)-2-oxoacetyl)-6-methyl-2,3-dihydro-1H-pyrrolizine-5-carboxamide] | 6.6 h
15 | Cc1c(C(=O)C(=O)NC2(c3c[nH]nn3)CC2)c2n(c1C(=O)Nc1ccc(F)c(C#N)c1)[C@@H]1C[C@@H]1C2 [Example 79, (1aR,6aR)-5-(2-((1-(1H-1,2,3-triazol-4-yl)cyclopropyl)amino)-2-oxoacetyl)-N-(3-cyano-4-fluorophenyl)-4-methyl-1,1a,6,6a-tetrahydrocyclopropa[b]pyrrolizine-3-carboxamide] | 14.9 h
16 | Cc1c(C(=O)C(=O)NC2(C(F)(F)F)COC2)c2n(c1C(=O)Nc1ccnc(C(F)F)c1)[C@@H]1C[C@@H]1C2 [Example 119, (1aR,6aR)—N-(2-(difluoromethyl)pyridin-4-yl)-4-methyl-5-(2-oxo-2-((3-(trifluoromethyl)oxetan-3-yl)amino)acetyl)-1,1a,6,6a-tetrahydrocyclopropa[b]pyrrolizine-3-carboxamide] | 11 h
17 | Cc1nnc(C2(NC(=O)C(=O)c3c(C)c(C(=O)Nc4ccc(F)c(Cl)c4)n4c3CCC4)CC2)o1 [Example 64, N-(3-chloro-4-fluorophenyl)-6-methyl-7-(2-((1-(5-methyl-1,3,4-oxadiazol-2-yl)cyclopropyl)amino)-2-oxoacetyl)-2,3-dihydro-1H-pyrrolizine-5-carboxamide] | 13.2 h
18 | Cc1c(C(=O)C(=O)NC2(c3cn(C)nn3)CC2)c2n(c1C(=O)Nc1ccc(F)c(Cl)c1)CCC2 [Example 98, N-(3-chloro-4-fluorophenyl)-6-methyl-7-(2-((1-(1-methyl-1H-1,2,3-triazol-4-yl)cyclopropyl)amino)-2-oxoacetyl)-2,3-dihydro-1H-pyrrolizine-5-carboxamide] | 14.8 h
19 | CNC(=O)C1(NC(=O)C(=O)c2c(C)c(C(=O)Nc3ccc(F)c(C#N)c3)n3c2C[C@H]2C[C@H]23)CC(F)(F)C1 [Example 30, (1aR,6aR)—N-(3-cyano-4-fluorophenyl)-5-(2-((3,3-difluoro-1-(methylcarbamoyl)cyclobutyl)amino)-2-oxoacetyl)-4-methyl-1,1a,6,6a-tetrahydrocyclopropa[b]pyrrolizine-3-carboxamide] | 27.2 h
20 | Cc1c(C(=O)C(=O)N[C@H](C)C(F)(F)F)c2n(c1C(=O)Nc1ccc(F)c(Cl)c1)C(C)CC2 (mixture of isomers) [Example 20, N-(3-chloro-4-fluorophenyl)-3,6-dimethyl-7-(2-oxo-2-(((R)-1,1,1-trifluoropropan-2-yl)amino)acetyl)-2,3-dihydro-1H-pyrrolizine-5-carboxamide] | 14.3 h
21 | Cc1c(C(=O)C(=O)NC2(C(N)=O)CC(F)(F)C2)c2n(c1C(=O)Nc1ccc(F)c(Cl)c1)CCC2 [Example 120, 7-(2-((1-carbamoyl-3,3-difluorocyclobutyl)amino)-2-oxoacetyl)-N-(3-chloro-4-fluorophenyl)-6-methyl-2,3-dihydro-1H-pyrrolizine-5-carboxamide] | 13.5 h
